Test results taken from article PMC9607353, “Combined In Silico and In Vitro Evidence Supporting an Aurora A Kinase Inhibitory Role of the Anti-Viral Drug Rilpivirine and an Anti-Proliferative Influence on Cancer Cells” (Pharmaceuticals, 2022).

Columns and labels:
Assay in all cases: kinase activity assay (ADP-Glo or radioisotope-based), dose-response; Ki from IC50 by Cheng-Prusoff
Type in all cases: biochemical
Aurora A kinase = biological target: T1, Aurora A kinase (Homo sapiens, UniProt O14965)
T1 construct: gene AURKA
T1 sequence (O14965 1-403): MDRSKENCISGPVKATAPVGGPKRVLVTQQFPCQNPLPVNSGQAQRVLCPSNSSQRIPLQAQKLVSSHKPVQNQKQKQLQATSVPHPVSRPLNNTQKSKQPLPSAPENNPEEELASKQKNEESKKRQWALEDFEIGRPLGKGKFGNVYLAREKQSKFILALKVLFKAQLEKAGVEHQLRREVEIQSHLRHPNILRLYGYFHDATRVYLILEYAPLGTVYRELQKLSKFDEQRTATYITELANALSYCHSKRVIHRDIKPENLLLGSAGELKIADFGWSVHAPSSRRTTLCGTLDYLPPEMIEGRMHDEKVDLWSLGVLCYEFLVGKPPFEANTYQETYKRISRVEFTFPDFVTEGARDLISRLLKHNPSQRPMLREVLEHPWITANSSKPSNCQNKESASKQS

Aurora B kinase = biological target: T2, Aurora B kinase (Homo sapiens, UniProt Q96GD4)
T2 construct: gene AURKB

PIM1 kinase = PIM1 kinase (Homo sapiens, UniProt P11309)
Sequence of PIM1 kinase (P11309 whole entry): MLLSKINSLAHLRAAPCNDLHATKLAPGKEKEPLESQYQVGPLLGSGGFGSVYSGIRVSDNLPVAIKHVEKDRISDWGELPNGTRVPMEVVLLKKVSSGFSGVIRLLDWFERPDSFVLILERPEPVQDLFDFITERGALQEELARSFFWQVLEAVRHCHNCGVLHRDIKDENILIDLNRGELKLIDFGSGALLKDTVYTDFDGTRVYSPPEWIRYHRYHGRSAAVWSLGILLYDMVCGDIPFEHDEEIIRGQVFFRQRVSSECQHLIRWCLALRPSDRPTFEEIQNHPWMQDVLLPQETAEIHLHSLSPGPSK

T2 sequence (Q96GD4 whole entry): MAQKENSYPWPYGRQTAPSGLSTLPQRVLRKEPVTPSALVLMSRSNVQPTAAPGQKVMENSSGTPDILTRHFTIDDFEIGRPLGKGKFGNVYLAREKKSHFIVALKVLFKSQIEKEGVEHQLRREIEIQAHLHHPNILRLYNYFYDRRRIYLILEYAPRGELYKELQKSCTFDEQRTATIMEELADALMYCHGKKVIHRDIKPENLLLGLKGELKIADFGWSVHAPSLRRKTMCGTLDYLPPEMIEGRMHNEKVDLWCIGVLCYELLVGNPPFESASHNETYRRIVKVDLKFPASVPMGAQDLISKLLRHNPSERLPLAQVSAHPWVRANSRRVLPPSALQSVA

Ki (Aurora A kinase): 116 nM | Ki (Aurora B kinase): 1820 nM | Ki (PIM1 kinase): 522 nM
Structure (SMILES): Cc1cc(/C=C/C#N)cc(C)c1Nc1ccnc(Nc2ccc(C#N)cc2)n1 [rilpivirine, 4-[[4-[[4-[(1E)-2-cyanoethenyl]-2,6-dimethylphenyl]amino]-2-pyrimidinyl]amino]benzonitrile]
